Results from patent publication US20080194732A1, “Optically transparent polymer with antibiofouling properties” (priority 2007, published 2008).

Experiments:
Chlorella capsulata = assay: Algae growth on antifoulant-loaded PMMA samples suspended 35 days in a salt water aquarium, read by optical transmission; assay type: cell-based; settings: 35 days in algae tank; for effect on algae growth: antifoulant in solvent-cast PMMA sheet
Method: To test the antifoulant properties of the capsaicin-loaded PMMA and the mixtures of algaecides and polymers, a marine environment was established. Tests were performed in a salt water environment as opposed to a freshwater environment due to the aggressive growth of salt water plants and animals. The supposition is that if the antifoulant-doped coverglass works in a salt water environment, it will work in a fresh water environment. Using a standard 5-gallon aquarium, the salt water environment was set up using a commercially available sea salt solution (INSTANT OCEAN®). The solution was prepared to have a specific gravity of 1.020-1.023, a pH of ˜8.3, and a water temperature of about 27° C. A small aliquot of Chlorella capsulata (a known aggressive biofouling algae) was obtained from the UTEX Culture Collection of Algae and grown in the aquarium. Growth of the algae was further enhanced using an algae growth promoter (KENT PRO-CULTURE). After four weeks of growth, a dense algae growth was present in the aquarium.
PMMA/capsaicin samples of varying capsaicin concentration were prepared as previously described. The samples to be tested were cut into 25×25 mm squares and suspended in the aquarium. To ensure that no location-dependent effects were incorporated into the study, the samples were rotated every few days. The aquarium lights and air system were left running at all times. The samples were left in place for 35 days.
After 35 days, the samples were removed from the tank and rinsed carefully with deionized water to remove any adhering salts. The algae coated samples were then tested for their optical transmission properties using the Ocean Optics SD2000 UV-Vis spectrometer. To properly hold and test the samples, samples wetted with a couple of drops of deionized water were placed in between two standard 1″×3″ microscope slides. […] In fact, algae grew better on the samples with a higher concentration of capsaicin.
Algae growth studies similar to that conducted for the capsaicin-loaded PMMA were then conducted for the Diuron/PMMA and Irgarol®/PMMA samples. […]

[1] = Decomposition point temperature by thermal gravimetric analysis; assay type: physicochemical
Method: The decomposition point temperature, or the temperature at which a material burns or decomposes, of the antifoulants must be above the processing temperature of the polymer. As determined by thermal gravimetric analysis, the decomposition point temperatures are 210° C. for capsaicin, 208° C. for Diuron, and 196° C. for Irgarol® 1051. The processing temperatures for melt extrusion are: for PMMA, 125° C.; for CBDO terephthalates (Cycloshield®), 130° C., and for polycarbonate, 190° C. It is expected that the antibiofoulants will be entrained in the polymer matrices. This entrainment is a key to the antifouling properties of the coverglasses or windows as it is the chemical nature of the antibiofoulants that provides the antifouling properties. In a typical matrix with entrained compounds there will always be some of these compounds exposed at the surface. Further, depending on the nature of the matrix, there will also be some diffusion rate of the compounds throughout the material.

[2] = Leaching rate of algaecides from PMMA substrates in water, by UV spectroscopy; assay type: physicochemical; settings: for leach rate: deionized water, 35 days; for leaching into test tanks: after five months, up to the limit of the spectrometer
Method: The effective lifetimes of the antifoulant-containing coverglass materials were tested by studying the leaching rate of the algaecides from PMMA substrates in water. The UV absorption bands of Diuron (at 254 nm) and Irgarol® (at 234 nm) were used to detect their presence in aqueous solutions. To study the leaching rate, duplicate samples of the highest concentration of algaecide in PMMA (4% by weight for Diuron and 0.5% for Irgarol®; three samples each) were placed in separate closed containers of ultra-pure deionized water (18 MΩ purity). After 35 days, the concentration of algaecide that had leached into the water was determined by UV spectroscopy using a standard Beer-Lambert law relationship:
Where A is the absorbance of the compound, ε is the extinction coefficient associated with the compound, l is the cell path length, and C is the concentration of the compound. By establishing a suitable set of calibration curves, ε can be calculated from empirical results. A set of calibration curves for both Diuron and Irgarol® was established from 10^−3 M to 10^−7 M in aqueous solution. A Mineral Light Short Wave UV source was used to provide the input light, while the absorption of the samples was collected with the Ocean Optics S2000 previously discussed. Aqueous samples were placed into closed quartz cuvettes for analysis. For the UV measurements the Ocean Optics spectrometer was equipped with a UV transmissive fiber optic cable and spectra collected from 200 nm to 575 nm. Absorbance was measured at the previously mentioned values. A reference sample of ultra-pure deionized water was used for this study.
The study determined that the lower limit of the spectrometer was approximately 10^−5 M concentration for these algaecides. […] That compares favorably to the reported leach rate of 4.04 μg cm^−2 days^−1 reported for leaching of Irgarol® from marine paints.

[3] = leaching from marine paints, reported value; cited from earlier work

| Structure (SMILES) | loss of visible transmission after algae growth (Chlorella capsulata; PMMA/capsaicin samples of varying capsaicin concentration) | effect on algae growth (Chlorella capsulata) | decomposition point temperature [1] [°C] | leach rate ([2]; 0.5% Irgarol in PMMA, no absorption at 234 nm) [μg cm^−2 day^−1] | leaching into test tanks [2] | reported leach rate from marine paints [3] [μg cm^−2 days^−1] | leach rate ([2]; 4% by weight Diuron in PMMA, no absorption at 254 nm) |
| --- | --- | --- | --- | --- | --- | --- | --- |
| COc1cc(CNC(=O)CCCC/C=C/C(C)C)ccc1O [capsaicin] | the greater the concentration of capsaicin, the greater was the loss of transmission | no effect in decreasing algae growth | 210 | – | – | – | – |
| CSc1nc(NC2CC2)nc(NC(C)(C)C)n1 [Irgarol®, N-(tert-butyl)-N′-cyclopropyl-6-(methylthio)-1,3,5-triazine-2,4-diamine] | – | – | 196 | < 1.81 | no evidence was found | 4.04 | – |
| CN(C)C(=O)Nc1ccc(Cl)c(Cl)c1 [Diuron, 3-(3,4-dichlorophenyl)-1,1-dimethylurea] | – | no sign of algae growth | 208 | – | no evidence was found | – | below 1.67 μg cm^−2 days^−1 |
